# Values of other authors as cited in article PMC12036195 (Journal of Hematology & Oncology, 2025).
# System: r/r PTCL
smiles,measurement,value
N#CC[C@H](C1CCCC1)n1cc(-c2ncnc3[nH]ccc23)cn1 [ruxolitinib],Response rate,25%
